Experimental data taken from patent US10183030B2, “17α,21-diesters of cortexolone for use in the treatment of tumors” (COSMO TECHNOLOGIES LTD., priority 2014, dated 2019).
Read-outs that look alike come from different tables or passages of the source.

Assays:
[1] = system: 22Rv1 prostate cancer cells; assay: In vitro proliferation, 22Rv1; type: cell-based; conditions: Homo sapiens, Table III, read-out: in vitro proliferation IC50 (μ/M)
Method: (§1) Each compounds was titrated from 3 uM to 200 uM.

Glucocorticoid Receptor = target: T1, Glucocorticoid Receptor (Homo sapiens, UniProt P04150); assay: GR reporter assay, agonist mode; type: cell-based; conditions: at very high concentrations
T1 construct: endogenous in cells; host or cells: human kidney epithelial cells
T1 sequence (P04150 1-777): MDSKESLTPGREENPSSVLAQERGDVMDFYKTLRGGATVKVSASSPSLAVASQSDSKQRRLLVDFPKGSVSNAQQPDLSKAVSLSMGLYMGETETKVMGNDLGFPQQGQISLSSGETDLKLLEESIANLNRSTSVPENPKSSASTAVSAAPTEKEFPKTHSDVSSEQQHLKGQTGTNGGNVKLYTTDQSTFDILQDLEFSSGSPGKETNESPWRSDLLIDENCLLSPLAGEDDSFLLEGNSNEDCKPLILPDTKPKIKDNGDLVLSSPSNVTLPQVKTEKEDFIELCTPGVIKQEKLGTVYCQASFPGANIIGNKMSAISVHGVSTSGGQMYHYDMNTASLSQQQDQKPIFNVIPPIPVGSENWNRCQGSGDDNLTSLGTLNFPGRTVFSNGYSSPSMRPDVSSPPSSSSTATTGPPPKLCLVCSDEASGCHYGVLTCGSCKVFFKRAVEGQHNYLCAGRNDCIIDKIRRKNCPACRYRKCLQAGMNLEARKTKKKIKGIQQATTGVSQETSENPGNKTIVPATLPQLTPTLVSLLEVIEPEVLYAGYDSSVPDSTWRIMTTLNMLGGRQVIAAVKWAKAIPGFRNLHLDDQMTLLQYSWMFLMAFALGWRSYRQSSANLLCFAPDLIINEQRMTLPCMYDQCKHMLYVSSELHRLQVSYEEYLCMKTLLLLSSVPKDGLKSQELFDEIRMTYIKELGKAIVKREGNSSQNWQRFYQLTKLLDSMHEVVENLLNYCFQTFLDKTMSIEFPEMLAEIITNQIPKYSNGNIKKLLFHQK
Method: The androgen and glucocorticoid hormones elicit divergent and often opposing effects in cells, tissues, and animals. […] CB-03-10 GR antagonist and agonist activities were tested in an in vitro assay. Briefly, human kidney epithelial cells were transfected with DNA construct containing GR binding sites linked to luminescent based reporter molecule. After 24 hours, cells were treated under antagonist or agonist modes. After an additional 24 hours, luminescence which is proportional to GR agonist transcriptional activity was quantitated.
Agonist Assay—was based on induction of luminescence by CB-03-10
The agonist activity of CB-03-10 was compared to a RU486 which is known to not have agonist activity.

[2] = system: MiaPaca-2 xenograft tumor; assay: MiaPaca2 human pancreatic tumor xenograft in nude mice, subcutaneous treatment; type: in vivo, mouse
Method: The test was carried out comparing the anti-tumor activity of cortexolone 17α-benzoate at two different dosages (8.0 mg/kg, corresponding approximately at 230 μM, and 40 mg/kg, corresponding approximately at 1150 μM), versus the vehicle (i.e. 0.4% (v/v) tween 80 and 0.5% (w/v) carboxymethylcellulose in normal saline) and versus the comparator Cyproterone Acetate at two different dosages (7.4 mg/kg and 37 mg/kg).
1×10^6 MiaPaca-2 cells suspended in matrigel were subcutaneously injected into 6 week old athymic nude mice.
The treatment with the tested compounds, with the vehicle and with the comparative compound, was initiated after the tumor volume has reached 50 mm^3 after transplantation. All compounds were injected 100 μL/mouse subcutaneously of low dose solution (approximately 230 μM) or 100 μL/mouse of high dose solution (approximately 1150 μM) of cortexolone 17α-benzoate, vehicle and cyproterone acetate, respectively. Compounds and controls were administered subcutaneously daily for 28 days.
Tumors were measured every 4 days with a digital caliper.
The results are plotted in FIG. 1 as average change in tumor volume relative to the start of treatment. Tumor volume was calculated according to the formula 0.5236(r1)^2(r2) where r1<r2.
The test was carried out comparing the anti-tumor activity of cortexolone 17α-valerate-21-propionate (CB-03-10) at two different dosages (approximately 8.6 mg/kg and 43 mg/kg) versus the vehicle (i.e. 0.4% (v/v) tween 80 and 0.5% (w/v) carboxymethylcellulose in normal saline) and versus the comparator Cyproterone Acetate at two different dosages (7.4 mg/kg and 37 mg/kg).
The treatment with the tested compound, with the vehicle and with the comparative compound was initiated after the tumor has reached a volume of 50 mm^3 after implantation, injecting subcutaneously 100 μL/mouse of low dose solution (approximately 230 μM) or 100 μL/mouse of high dose solution (approximately 1150 μM) of cortexolone 17α-valerate-21-propionate (CB-03-10), vehicle and cyproterone acetate, respectively. Compounds and controls were administered subcutaneously daily for 28 days.
The results are plotted in FIG. 2 as average change in tumor volume relative to the start of treatment. Tumor volume was calculated according to the formula 0.5236(r1)^2(r2) where r1<r2.
CPA a well-known anti-androgen was used as control. Briefly 1×10^6 MiaPaca2 cells suspended in matrigel were subcutaneously (SC) injected into 6 week old male athymic nude mice. Tumors were measured every 4 days with a digital caliper. Tumor volume was calculated according to the formula: 0.5236(r1) 2(r2) where r1<r2. Treatment with CB-03-10 and controls compounds was initiated after the tumor had reached 50 mm^3. Compounds diluted in DMSO/2-hydroxypropyl b-cyclodextrin (vehicle) were injected subcutaneously (SC) daily (100 μL/mouse) at the concentration of 40 mg/Kg daily for 28 consecutive days.

MDA-MB-231 TNBC cells = assay: In vitro proliferation / cytotoxic assay, MDA-MB-231; type: cell-based; conditions: Homo sapiens; MDA-MB-231 (ER−PR−GR++); 72 hours; Table VI; unit inferred; read-out: IC50 on breast cancer cells
Method: After 72 hours incubation cell were harvested, lysed and viability determined using the cell titer glow assay for viability.

[3] = system: MiaPaca2 (AR low) pancreatic cancer cells; assay: ATP-dependent proliferation/viability assay, MiaPaca2; type: cell-based; conditions: Homo sapiens, read-out: IC50
Method: The experimental method consisted of: • 1. […] After 24 hours, 10 nM DHT (dihydrotestosterone) with or without anti-androgen compounds, or DMSO vehicle (negative control) was added to the cultures. • 3.
as §1

HT29 colon cancer cells = assay: In vitro proliferation, HT29 (cancer cell panel); type: cell-based; conditions: Homo sapiens
Method: as §1

[4] = In vitro metabolism in rat plasma; type: in vitro ADME; conditions: 37° C.; FIG. 13
Method: To obtain some insights on the metabolism of CB-03-10 in human and rat plasma, a specific assay was designed. Briefly the compound was incubated at different time in human and rat plasma at 37° C. After incubation the samples were tested for presence of the intact compound by liquid chromatography.

[5] = Example 22, 40 mg/Kg SC daily for 28 days

## CCCCC(=O)O[C@]1(C(=O)COC(=O)CC)CC[C@H]2[C@@H]3CCC4=CC(=O)CC[C@]4(C)[C@H]3CC[C@@]21C [CB-03-10, cortexolone 17α-valerate-21-propionate]
[1]
  IC50: 18 µM
Glucocorticoid Receptor
  GR agonist activity relative to 50 nM Dex: 20%
[2]; Example 22, 40 mg/Kg SC daily for 28 consecutive days
  pancreatic tumor size increase relative to the initial size, during the treatment period: less than 5 fold
[2]; [5]
  Median survival: 70 days
  tumor size increase 14 days after treatment was stopped: 6 fold
[2]; Examples 5 and 6, SC daily for 28 days, test compounds at high dose (approximately 1150 μM, 100 μL/mouse), Cyproterone Acetate treatment groups 7.4 and 37 mg/kg
  pancreatic tumor size increase relative to the start of treatment: less than 5 fold
MDA-MB-231 TNBC cells
  IC50: 106 µM
[3]; MIA PaCa-2, 72 h, MiaPaca2, 10 nM DHT, 3 days, Examples 3-4, Experiment 1
  IC50: 43 µM
[3]; MIA PaCa-2, MiaPaca2, Example 7, Experiment 1
  IC50: 34 µM
HT29 colon cancer cells; HT-29, read-out: In vitro proliferation IC50 (micro Molar)
  IC50: 14 µM
HT29 colon cancer cells; HT-29, read-out: in vitro proliferation IC50 (μ/M)
  IC50: 14 µM
[4]
  degradation in rat plasma: degraded more rapidly in rat compared to human plasma
